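Briefly, cells in 96-well plates were exposed to five compound concentrations for 48 h, and endpoints were estimated by linear interpolation. The concentration for 50% growth inhibition is given as GI50.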 Calls of active or inactive are those of the source. No stated cut-off is given here; in the data, active = GI50 up to about 1.1 µM and inactive = higher.
Key:
Assay in all cases: DTP human tumour cell line panel, 48 h
[1] = system: 786-0
[2] = system: A498
[3] = system: A549
[4] = system: ACHN
[5] = system: CAKI-1
[6] = system: CCRF-CEM
[7] = system: COLO 205
[8] = system: DLD-1
[9] = system: DMS-114
[10] = system: EKVX
[11] = system: HCC 2998
[12] = system: HCT-116
[13] = system: HCT-15
[14] = system: HL-60
[15] = system: HOP-18
[16] = system: HOP-62
[17] = system: HOP-92
[18] = system: HT-29
[19] = system: IGROV-1
[20] = system: K562
[21] = system: KM-20L2
[22] = system: KM12
[23] = system: LOX IMVI
[24] = system: LXFL 529
[25] = system: M14
[26] = system: M19-MEL
[27] = system: MOLT-4
[28] = system: Malme-3M
[29] = system: NCI-H226
[30] = system: NCI-H23
[31] = system: NCI-H460
[32] = system: NCI-H522
[33] = system: OVCAR-3
[34] = system: OVCAR-4
[35] = system: OVCAR-5
[36] = system: OVCAR-8
[37] = system: RPMI-8226
[38] = system: RXF 393
[39] = system: SF-268
[40] = system: SF-295
[41] = system: SF-539
[42] = system: SK-MEL-28
[43] = system: SK-MEL-2
[44] = system: SK-MEL-5
[45] = system: SK-OV-3
[46] = system: SN12C
[47] = system: SNB-19
[48] = system: SNB-75
[49] = system: SNB-78
[50] = system: SR
[51] = system: SW-620
[52] = system: U-251
[53] = system: UACC-257
[54] = system: UACC-62
[55] = system: UO-31
[56] = system: XF498

In the case of `NN1C(=O)C(CCO)S/C1=N/N=C1/SC(CCO)C(=O)N1N` (stereo unspecified), the GI50 [1] is reported as > 100 µM (inactive), the GI50 [2] is reported as > 100 µM (inactive) and the GI50 [3] is reported as > 100 µM (inactive). The GI50 [4] was > 100 µM (inactive), the GI50 [5] was > 100 µM (inactive) and the GI50 [6] was > 100 µM (inactive). The GI50 [7] was > 100 µM (inactive), the GI50 [8] was > 100 µM (inactive) and the GI50 [9] was > 100 µM (inactive). For the same molecule, the GI50 [10] was > 100 µM (inactive), the GI50 [11] was > 100 µM (inactive) and the GI50 [12] was > 100 µM (inactive). For the same molecule, the GI50 [13] was over 100 µM, the GI50 [14] was > 100 µM (inactive) and the GI50 [15] was > 100 µM (inactive). The GI50 [16] was > 100 µM (inactive), the GI50 [17] was > 100 µM (inactive) and the GI50 [18] was > 100 µM (inactive). The GI50 [19] was > 100 µM (inactive), the GI50 [20] was > 100 µM (inactive) and the GI50 [21] was > 100 µM (inactive). For the same molecule, the GI50 [22] was > 100 µM (inactive), the GI50 [23] was > 100 µM (inactive) and the GI50 [24] was > 100 µM (inactive). For the same molecule, the GI50 [25] was > 100 µM (inactive), the GI50 [26] was > 100 µM (inactive) and the GI50 [27] was > 100 µM (inactive). The GI50 [28] was > 100 µM (inactive), the GI50 [29] was > 100 µM (inactive) and the GI50 [30] was > 100 µM (inactive). The GI50 [31] was > 100 µM (inactive), the GI50 [32] was > 100 µM (inactive) and the GI50 [33] was > 100 µM (inactive). For the same molecule, the GI50 [34] was > 100 µM (inactive), the GI50 [35] was > 100 µM (inactive) and the GI50 [36] was > 100 µM (inactive). The GI50 [37] was > 100 µM (inactive), the GI50 [38] was > 100 µM (inactive) and the GI50 [39] was > 100 µM (inactive). For the same molecule, the GI50 [40] was > 100 µM (inactive), the GI50 [41] was > 100 µM (inactive) and the GI50 [42] was > 100 µM (inactive). For the same molecule, the GI50 [43] was > 100 µM (inactive), the GI50 [44] was > 100 µM (inactive) and the GI50 [45] was > 100 µM (inactive). For the same molecule, the GI50 [46] was > 100 µM (inactive), the GI50 [47] was > 100 µM (inactive) and the GI50 [48] was > 100 µM (inactive). For the same molecule, the GI50 [49] was > 100 µM (inactive), the GI50 [50] was > 100 µM (inactive) and the GI50 [51] was > 100 µM (inactive). The GI50 [52] was > 100 µM (inactive), the GI50 [53] was > 100 µM (inactive) and the GI50 [54] was > 100 µM (inactive). The GI50 [55] was > 100 µM (inactive) and the GI50 [56] was 16.1 µM (inactive).

— ChEMBL document CHEMBL1201862, “PubChem BioAssay data set” (2004)
